In ChEMBL document CHEMBL1240403, “Penicillin-binding protein gene alterations in Streptococcus uberis isolates presenting decreased susceptibility to penicillin” (2010):
≈ marks a conversion by molar mass, not a printed value.

Tests used:
[1] = system: Streptococcus uberis; assay: Antimicrobial activity against Streptococcus uberis ATCC 19436 harboring PAP1A A227T, PBP2B N366I/T402I and PBP2X E381K/D524A/Q554E mutation after 18 passages assessed as inhibition of visible growth by broth macrodilution method; format: functional
[2] = system: Streptococcus uberis; assay: Antimicrobial activity against Streptococcus uberis ATCC 8749 harboring PAP1A A227T/G386R, PBP2B N366I/T402I and PBP2X E381K/D524A/Q554E mutation after 37 passages assessed as inhibition of visible growth broth macrodilution method; format: functional
[3] = system: Streptococcus uberis; assay: Antimicrobial activity against Streptococcus uberis isolate BL246 harboring PBP2B N366I/T402I and PBP2X E381K/Q554E mutation assessed as inhibition of visible growth after 24 hrs by broth macrodilution method; format: functional; conditions: isolate BL246, 24 h
[4] = system: Streptococcus uberis; assay: Antimicrobial activity against Streptococcus uberis ATCC 9529 harboring PAP1A R273P, PBP2B N366I/T402I and PBP2X E381K/Q554E mutation after 11 passages assessed as inhibition of visible growth by broth macrodilution method; format: functional
[5] = system: Streptococcus uberis; assay: Antimicrobial activity against Streptococcus uberis ATCC 19436 harboring PAP1A A227T/G386R, PBP2B N366I/T402I and PBP2X E381K/D524A/Q554E mutation after 30 passages assessed as inhibition of visible growth by broth macrodilution method; format: functional
[6] = system: Streptococcus uberis; assay: Antimicrobial activity against Streptococcus uberis ATCC 9529 harboring PAP1A R273P, PBP2B N366I/T402I and PBP2X E381K/Q554E mutation after 28 passages assessed as inhibition of visible growth by broth macrodilution method; format: functional
[7] = system: Streptococcus uberis; assay: Antimicrobial activity against Streptococcus uberis isolate 1.11 harboring PAP1A G386R, PBP2B T593A and PBP2X E381K/Q554E mutation assessed as inhibition of visible growth after 24 hrs by broth macrodilution method; conditions: isolate 1.11, 24 h
[8] = system: Streptococcus uberis; assay: Antimicrobial activity against Streptococcus uberis isolate ALP8092 harboring PAP1A G386R and PBP2X E381K/Q554E mutation assessed as inhibition of visible growth after 24 hrs by broth macrodilution method; format: functional; conditions: isolate ALP8092, 24 h
[9] = system: Streptococcus uberis; assay: Antimicrobial activity against Streptococcus uberis ATCC 19436 assessed as inhibition of visible growth after 24 hrs by broth macrodilution method; format: functional; conditions: ATCC 19436, 24 h
[10] = system: Streptococcus uberis; assay: Antimicrobial activity against Streptococcus uberis isolate 20592 harboring and PBP2X E381K/Q554E mutation assessed as inhibition of visible growth after 24 hrs by broth macrodilution method; format: functional; conditions: isolate 20592, 24 h
[11] = system: Streptococcus uberis; assay: Antimicrobial activity against Streptococcus uberis isolate 20618 harboring PAP1A G386R and PBP2X E381K/Q554E mutation assessed as inhibition of visible growth after 24 hrs by broth macrodilution method; format: functional; conditions: isolate 20618, 24 h
[12] = system: Streptococcus uberis; assay: Antimicrobial activity against Streptococcus uberis ATCC 19436 harboring PAP1A A227T, PBP2B N366I/T402I and PBP2X E381K/Q554E mutation after 15 passages assessed as inhibition of visible growth by broth macrodilution method; format: functional
[13] = system: Streptococcus uberis; assay: Antimicrobial activity against Streptococcus uberis ATCC 8749 harboring PAP1A A227T/G386R, PBP2B N366I/T402I and PBP2X E381K/D524A/Q554E mutation after 28 passages assessed as inhibition of visible growth broth macrodilution method; format: functional
[14] = system: Streptococcus uberis; assay: Antimicrobial activity against Streptococcus uberis ATCC 9529 harboring PAP1A A227T/G386R, PBP2B N366I/T402I and PBP2X E381K/D524A/Q554E mutation after 39 passages assessed as inhibition of visible growth by broth macrodilution method; format: functional
[15] = system: Streptococcus uberis; assay: Antimicrobial activity against Streptococcus uberis isolate ALP 8144 harboring PBP2X E381K/Q554E mutation assessed as inhibition of visible growth after 24 hrs by broth macrodilution method; format: functional; conditions: isolate ALP 8144, 24 h
[16] = system: Streptococcus uberis; assay: Antimicrobial activity against Streptococcus uberis ATCC 8749 harboring PAP1A R273H, PBP2B N366I/T402I and PBP2X E381K/Q554E mutation after 16 passages assessed as inhibition of visible growth by broth macrodilution method; format: functional
[17] = system: Streptococcus uberis; assay: Antimicrobial activity against Streptococcus uberis ATCC 8749 harboring PBP2B N366I/T402I/V570A/P575S and PBP2X A492E mutation assessed as inhibition of visible growth by broth macrodilution method; format: functional
[18] = system: Streptococcus uberis; assay: Antimicrobial activity against Streptococcus uberis ATCC 9529 harboring PBP2B N366I/T402I and PBP2X E381K/Q554E mutation assessed as inhibition of visible growth by broth macrodilution method; format: functional
[19] = system: Streptococcus uberis; assay: Antimicrobial activity against Streptococcus uberis isolate 20568 harboring PAP1A G386R, PBP2B N366I/T402I/V570A/P575S and PBP2X E381K/Q554E mutation assessed as inhibition of visible growth after 24 hrs by broth macrodilution method; format: functional; conditions: isolate 20568, 24 h

Question: Which results are given for `CC1(C)S[C@@H]2[C@H](NC(=O)Cc3ccccc3)C(=O)N2[C@H]1C(=O)O` [PENICILLIN G]?
Answer: MIC [1]: 1 µg/mL (≈ 2.99 µM); MIC [2]: 2 µg/mL (≈ 5.98 µM); MIC [3]: 0.25 µg/mL (≈ 0.748 µM); MIC [4]: 0.5 µg/mL (≈ 1.5 µM); MIC [5]: 2 µg/mL (≈ 5.98 µM); MIC [6]: 1 µg/mL (≈ 2.99 µM); MIC [7]: 0.25 µg/mL (≈ 0.748 µM); MIC [8]: 0.25 µg/mL (≈ 0.748 µM); MIC [9]: 0.032 µg/mL (≈ 0.0957 µM); MIC [10]: 0.5 µg/mL (≈ 1.5 µM); MIC [11]: 0.25 µg/mL (≈ 0.748 µM); MIC [12]: 0.5 µg/mL (≈ 1.5 µM); MIC [13]: 1 µg/mL (≈ 2.99 µM); MIC [14]: 2 µg/mL (≈ 5.98 µM); MIC [15]: 0.25 µg/mL (≈ 0.748 µM); MIC [16]: 0.5 µg/mL (≈ 1.5 µM); MIC [17]: 0.016 µg/mL (≈ 0.0478 µM); MIC [18]: 0.128 µg/mL (≈ 0.383 µM); MIC [19]: 0.5 µg/mL (≈ 1.5 µM)
